# Source: patent US20240398783A1, “Compounds and Pharmaceutical Compositions Comprising Inhibitors of Amyloid Peptide Interactions with Glycosaminoglycans, Methods of Treatment and Use Thereof” (Gismo Therapeutics, Inc., priority 2021, published 2024)
# Counter-ions that a name gives are not always drawn.
# Biological target: Amyloid-beta(1-40) binding to heparin (HS-GAG) (Homo sapiens, UniProt P05067)
# Experiment: Inhibition of Amyloid-beta(1-40) binding to immobilized heparin-BSA (ELISA)
# Parameters: species or system porcine
# Settings: 30 μM compound; Abeta(1-40), heparin-BSA; read-out: Abeta40/Heparin Activity (% inhibition class)
# Method: Porcine intestinal mucosa heparin conjugated to Bovine Serum Albumin (Heparin-BSA) was prepared as described (Najjam, S. et al. 1997, Cytokine 12, 1013-1022). Heparin is a sulfated HS-GAG and is commonly used as a HS-GAG in biochemical and binding assays (Lindahl, U. and Kjellen, L. (2013) ibid). Heparin-BSA at 0.01 mg/ml in Phosphate Buffered Saline (PBS; pH 7.4) was added to a 96 well polystyrene ELISA plate (NUNC Cat. No. 449824; 100 μl per well) and incubated Over Night (ON) at 4 degrees Celsius. For negative controls, ELISA plates were coated with BSA instead of Heparin-BSA, using the same procedure. Following the incubation, the plate was washed consecutively, by immersion, with de-ionized water and PBS (pH 7.4). The ELISA plate was then blocked with nonfat milk (2%, 200 μl per well) for 2 hours at Room Temperature (RT) with gentle shaking. Following blocking, the plate was washed with de-ionized water then PBS (pH 7.4). GBAPs were dissolved and diluted in PBS (pH 6.5, supplemented with 0.1% BSA) at desired concentrations, added to the ELISA plates containing immobilized Heparin-BSA (100 μl per well) and incubated for 2 hours at RT with gentle shaking. Following incubation, the plate was washed with de-ionized water and three times with PBS (pH 6.5) plus Tween. Bound GBAP was detected by a monoclonal antibody specific for that GBAP, followed by incubation with secondary antibody conjugated to horseradish peroxidase (HRP). Antibody was diluted in PBS (pH 6.5 supplemented with 1% BSA). Following each incubation with antibody, the plate was washed with de-ionized water and three times with PBS (pH 6.5) wash buffer containing 0.1% Tween. The peroxidase substrate chromogen, TMB (Dako Cat. No. S1599) was added (100 μl per well) to the ELISA plate and incubated at room temperature. After 5 minutes ELISA Stop Solution (hydrochloric acid 1N, sulfuric acid 3N) was added (100 μl per well) to stop the peroxidase catalyzed colorimetric reaction. The Optical Density of the samples was measured at 450 nm using an ELISA plate reader (BioTek Synergy H1). Following color development, the % inhibition compared to control (BSA-coated plates) was determined. IC-50s were calculated using GraphPad Prism software.
# The assay was performed as described in Example 43, with the following modifications. Following to coating the plates with Heparin-BSA, plates were washed as described. The compounds were dissolved in DMSO at 10 mM final concentration and further diluted prior to assay. DMSO concentration in the screening well was up to 2%. Individual compounds were co-incubated with Beta-amyloid peptides on plates containing immobilized heparin. Beta-amyloid (1-42) was purchased from rPeptide (Cat. No. A1163) and used to prepare oligomers according to Stine et al., 2003 (J Biol Chem. 278(13):11612-22) as follows. 1,1,1,3,3,3-Hexafluoro-2-propanol- (HFIP; Sigma Cat. No. 105228)-treated Beta amyloid (1-42) was dissolved in dry DMSO (Sigma Cat. No. D2650) to 5 mM concentration. Dissolved Beta amyloid (1-42) was then diluted to 100 μM in ice-cold cell culture medium (phenol red-free Ham's F-12; Caisson Labs, Cat. No. HFL05), followed immediately by vortexing for 30 seconds, and incubating at 4 degrees Celsius for 24 h. Resulting Beta amyloid (1-42) oligomers were centrifuged at 12,000 rpm for 10 min at 4 degree Celsius to remove aggregates. Oligomers were then quickly frozen and kept in aliquots at −80 degrees Celsius. Beta-amyloid (1-40) from rPeptide (Cat No. A1153) was dissolved in DMSO, quickly frozen and kept in aliquots at −80 degrees Celsius. Beta-amyloid (1-42) oligomers or Beta-amyloid (1-40) diluted in PBS (pH 6.5, supplemented with BSA, 0.1%) were added to the ELISA plate (100 μl per well) and incubated for 2 hours at RT with gentle shaking. Following the incubation, the plate was washed with de-ionized water and three times with PBS (pH 6.5) plus Tween. […]
# Amyloid-beta(1-40) binding to heparin (HS-GAG), sequence (P05067 672-711): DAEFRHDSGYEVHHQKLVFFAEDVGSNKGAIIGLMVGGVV
row,Structure (SMILES),inhibition at 30 µM
1,"C[n+]1ccc(/C=N\Nc2ccnc3ccccc23)cc1 [Compound 9, (Z)-1-methyl-4-((2-(quinolin-4-yl)hydrazono)methyl)pyridin-1-ium iodide]",< 30%
2,"Fc1ccc2c(N/N=C/c3ccc(CN4CCOCC4)cc3)ccnc2c1 [Compound 6, (E)-4-(4-((2-(7-fluoroquinolin-4-yl)hydrazono)methyl)benzyl)morpholine]",> 30%
3,"CN(C)Cc1cc(Nc2ccnc3cc(Cl)ccc23)ccn1 [Compound 45, 7-chloro-N-(2-((dimethylamino)methyl)pyridin-4-yl)quinolin-4-amine]",< 30%

# Same assay, conditions: Abeta40/Heparin Activity (IC-50), Abeta(1-40), co-incubation on heparin-BSA plates
row,Structure (SMILES),IC50
1,"CC(=NNc1ccnc2cc(Cl)ccc12)c1ccc(-n2ccnc2)cc1 [Compound 36, 4-(2-(1-(4-(1H-imidazol-1-yl)phenyl)ethylidene)hydrazineyl)-7-chloroquinoline phosphate]",13.8 µM
2,"CCN(CC)Cc1cccc(Nc2ccnc3cc(Cl)ccc23)c1 [Compound 42, 7-chloro-N-(3-((diethylamino)methyl)phenyl)quinolin-4-amine]",12.3 µM
3,"COc1ccc2c(NN=Cc3ccc(-n4ccnc4)c(C)c3)ccnc2c1 [Compound 12, 4-(2-(4-(1H-imidazol-1-yl)-3-methylbenzylidene)hydrazineyl)-7-methoxyquinoline]",17.9 µM
4,"O=S1(=O)CCN(Cc2ccc(/C=N/Nc3ccnc4cc(F)ccc34)cc2)CC1 [Compound 10, (E)-4-(4-((2-(7-fluoroquinolin-4-yl)hydrazono)methyl)benzyl)thiomorpholine 1,1-dioxide]",35.6 µM
5,"C/C(=N\Nc1ncnc2cc(Cl)ccc12)c1ccc(-n2cc(C)nc2C)nc1 [Compound 27, (E)-7-chloro-4-(2-(1-(6-(2,4-dimethyl-1H-imidazol-1-yl)pyridin-3-yl)ethylidene)hydrazineyl)quinazoline hydrochloride]",2.2 µM
6,"Fc1ccc2c(N/N=C/c3ccc(-n4ccnc4)cc3)ccnc2c1 [Compound 5, (E)-4-(2-(4-(1H-imidazol-1-yl)benzylidene)hydrazinyl)-7-fluoroquinoline]",3.33 µM
7,"Cc1cn(-c2ccc(Nc3cncc4cc(Cl)ccc34)cn2)c(C)n1 [Compound 37, 7-chloro-N-(6-(2,4-dimethyl-1H-imidazol-1-yl)pyridin-3-yl)isoquinolin-4-amine phosphoric acid salt]",45.6 µM
8,"C/C(=N\Nc1ncnc2cc(F)ccc12)c1ccc(-n2cc[n+](C)c2)nc1 [Compound 26, (E)-1-(5-(1-(2-(7-fluoroquinazolin-4-yl)hydrazineylidene)ethyl)pyridin-2-yl)-3-methyl-1H-imidazol-3-ium phosphoric acid salt]",10.2 µM
9,"Clc1ccc2c(N/N=C/c3ccc(-n4cccn4)cc3)ccnc2c1 [Compound 3, (E)-4-((E)-(4-(1H-pyrazol-1-yl)benzylidene)hydrazono)-7-chloro-1,4-dihydroquinoline]",2.75 µM
10,"Clc1ccc2c(Nc3ccc(-n4cncn4)nc3)ccnc2c1 [Compound 44, N-(6-(1H-1,2,4-triazol-1-yl)pyridin-3-yl)-7-chloroquinolin-4-amine]",19.3 µM
11,"COc1cc(Nc2nncc3cc(Cl)ccc23)cnc1-n1cnc(C)c1C [Compound 31, 6-chloro-N-(6-(4,5-dimethyl-1H-imidazol-1-yl)-5-methoxypyridin-3-yl)phthalazin-1-amine phosphoric acid salt]",23.3 µM
12,"Clc1ccc2c(N/N=C/c3ccc(-n4ccnc4)cc3)ccnc2c1 [Compound 38, 4-(2-(4-(1H-imidazol-1-yl)benzylidene)hydrazineyl)-7-chloroquinoline dihydrochloride]",1.28 µM
13,"CC(=NNc1ccnc2cc(Cl)ccc12)c1ccc(-n2cnc(C)c2C)nc1 [Compound 22, 7-chloro-4-(2-(1-(6-(4,5-dimethyl-1H-imidazol-1-yl)pyridin-3-yl)ethylidene)hydrazineyl)quinoline]",16.3 µM
14,"Cc1ncn(-c2ccc(Nc3ncnc4cc(Cl)ccc34)cn2)c1C [Compound 25, 7-chloro-N-(6-(4,5-dimethyl-1H-imidazol-1-yl)pyridin-3-yl)quinazolin-4-amine]",1.7 µM
15,"Clc1ccc2c(N/N=C/c3ccc(-n4ccnc4)nc3)ccnc2c1 [Compound 14, (E)-4-(2-((6-(1H-imidazol-1-yl)pyridin-3-yl)methylene)hydrazineyl)-7-chloroquinoline hydrochloride]",7.77 µM

# Same assay, conditions: Abeta(1-40), co-incubation on heparin-BSA plates; read-out: Abeta40/Heparin Activity (IC-50)
row,Structure (SMILES),IC50
1,"C/C(=N\Nc1ncnc2cc(Cl)ccc12)c1ccc(-n2cc(C)nc2C)nc1 [Compound 18, (E)-7-chloro-4-(2-(1-(6-(2,4-dimethyl-1H-imidazol-1-yl)pyridin-3-yl)ethylidene)hydrazineyl)quinazoline phosphoric acid salt]",3.31 µM
2,"Cc1cc(-n2ccnc2)ccc1/C=N/Nc1ccnc2cc(Cl)ccc12 [Compound 1, (E)-4-((E)-(4-(1H-imidazol-1-yl)-2-methylbenzylidene)hydrazono)-7-chloro-1,4-dihydroquinoline]",3.67 µM
3,"C/C(=N\Nc1ncnc2cc(F)ccc12)c1ccc(-n2cnc(C)c2C)nc1 [Compound 21, (E)-4-(2-(1-(6-(4,5-dimethyl-1H-imidazol-1-yl)pyridin-3-yl)ethylidene)hydrazineyl)-7-fluoroquinazoline]",7.41 µM
4,"Clc1ccc2c(Nc3ccc(-n4ccnc4)nc3)ncnc2c1 [Compound 41, N-(6-(1H-imidazol-1-yl)pyridin-3-yl)-7-chloroquinazolin-4-amine]",32.7 µM

# Same assay, conditions: read-out: Abeta40/Heparin Activity (% inhibition class)
row,Structure (SMILES),inhibition at 30 µM
1,"C/C(=N\Nc1ncnc2cc(Cl)ccc12)c1cccc(N2CCN(C)CC2)c1 [Compound 30, 7-chloro-4-(2-(1-(3-(4-methylpiperazin-1-yl)phenyl)ethylidene)hydrazineyl)quinazoline]",> 30%
2,"CN1CCN(c2cc(Nc3ccnc4cc(Cl)ccc34)ccn2)CC1 [Compound 20, 7-chloro-N-(2-(4-methylpiperazin-1-yl)pyridin-4-yl)quinolin-4-amine]",< 30%
3,"CC(=NNc1ccnc2cc(Cl)ccc12)c1ccc(-n2cc[n+](C)c2)nc1 [Compound 23, 1-(5-(1-(2-(7-chloroquinolin-4-yl)hydrazineylidene)ethyl)pyridin-2-yl)-3-methyl-1H-imidazol-3-ium iodide]",> 30%
4,"COc1cc(Nc2cncc3cc(Cl)ccc23)cnc1-n1cnc(C)c1C [Compound 33, 7-chloro-N-(6-(4,5-dimethyl-1H-imidazol-1-yl)-5-methoxypyridin-3-yl)isoquinolin-4-amine phosphoric acid salt]",< 30%
5,"C(=N\Nc1ccc2c3c(cccc13)CC2)/c1ccc(-n2ccnc2)cc1 [Compound 8, (E)-1-(4-((2-(1,2-dihydroacenaphthylen-5-yl)hydrazineylidene)methyl)phenyl)-1H-imidazole]",< 30%
6,"Cc1ncn(-c2ncc(Nc3ncnc4cc(Cl)ccc34)cc2O)c1C [Compound 40, 5-((7-chloroquinazolin-4-yl)amino)-2-(4,5-dimethyl-1H-imidazol-1-yl)pyridin-3-ol phosphoric acid salt]",< 30%
7,"Fc1cc(/C=N/Nc2ccnc3cc(Cl)ccc23)ccc1-n1ccnc1 [Compound 35, (E)-7-chloro-4-(2-(3-fluoro-4-(1H-imidazol-1-yl)benzylidene)hydrazineyl)quinoline hydrochloride]",< 30%
